Measurements published in patent US20100286098A1, “USE OF TETRAHYDROCANNABINOL AND/OR CANNABIDIOL FOR THE TREATMENT OF INFLAMMATORY BOWEL DISEASE” (GW Pharma Limited, priority 2007, published 2010).

What was measured:
Assay type in all cases: in vivo, rat
[1] = tested on: myeloperoxidase (MPO) activity; assay: TNBS model of colitis, myeloperoxidase (MPO) activity; settings: for MPO, mean: 72 h after TNBS
Description: (§1) In this example, the TNBS (trinitrobenzenesulfonic acid) model of colitis was used to characterize the effects of CBD alone, THC alone and a combination of CBD and THC (in two different ratios) on inflammation and in vitro motility and secretory parameters.
(§2) Colitis was evoked in male Wistar rats by intra-colonic administration of 6.7 mg TNBS in 0.25 ml 25% ethanol. The degree of inflammation was quantified using a macroscopic damage score (MDS, 0-13 scale) and myeloperoxidase (MPO) activity.
(§3) CBD was used at doses of 5, 10, 15 and 20 mg/kg. THC was used at doses of 5, 10 and 20 mg/kg. In addition THC at doses of 5 and 10 mg/kg was administered in combination with CBD at a dose of 10 mg/kg.
(§4) Doses were administered i.p., once daily starting 0.5 hour before TNBS administration and animals (n=6-11 per group) were sacrificed 72 hours after colitis induction.

[2] = tested on: TNBS (trinitrobenzenesulfonic acid) model of colitis; assay: TNBS model of colitis, macroscopic damage score (MDS); settings: for MDS, mean: 72 h after TNBS, 0-13 scale
Description: as §1, §2, §3, §4

[3] = tested on: mucosa-submucosa preparations; assay: Ussing chamber, secretory response to carbachol (ΔIsc), TNBS colitis rats; settings: THC alone, data not shown
Description: (§5) Using the Ussing chamber technique, secretory responses evoked by veratridine (a nerve stimulant, 1×10^−5M) were assessed and expressed as % response to carbachol (1×10−5M).
as §3, §4

[4] = tested on: mucosa-submucosa preparations; assay: Ussing chamber, secretory response evoked by veratridine (nerve stimulation), TNBS colitis rats
Description: as §5, §3, §4

| Structure (SMILES) | MPO, mean ([1]; CBD 5 mg/kg i.p. once daily, vehicle 6.03) | MPO, mean ([1]; CBD 10 mg/kg i.p. once daily, vehicle 6.03) | MPO, mean ([1]; CBD 15 mg/kg i.p. once daily, vehicle 6.03) | MPO, mean ([1]; CBD 20 mg/kg i.p. once daily, vehicle 6.03) | effect on MPO across doses ([1]; CBD 5, 10, 15 and 20 mg/kg i.p.) | MDS, mean ([2]; CBD 5 mg/kg i.p. once daily, vehicle 5.46) | MDS, mean ([2]; CBD 15 mg/kg i.p. once daily, vehicle 5.46) | MDS, mean ([2]; CBD 20 mg/kg i.p. once daily, vehicle 5.46) | MPO, mean ([1]; THC 5 mg/kg i.p. once daily, vehicle 3.35) | responses to carbachol [3] | MDS, mean ([2]; THC 5 mg/kg i.p. once daily, vehicle 6.00) | MDS, mean ([2]; THC 20 mg/kg i.p. once daily, vehicle 6.00) | dose-response relationship on MDS ([2]; THC 5, 10 and 20 mg/kg i.p.) | secretory response to nerve stimulation ([4]; THC 10 mg/kg i.p. alone, expressed as % response to carbachol, vehicle 24.4±8.2) | secretory responses to nerve stimulation ([4]; THC alone, data not shown) |
| --- | --- | --- | --- | --- | --- | --- | --- | --- | --- | --- | --- | --- | --- | --- | --- |
| C=C(C)[C@@H]1CCC(C)=C[C@H]1c1c(O)cc(CCCCC)cc1O [CBD, cannabidiol] | 5.38 ngHRP/mg protein | 4.65 ngHRP/mg protein | 4.00 ngHRP/mg protein | 2.68 ngHRP/mg protein | reduced MPO in a dose dependent manner, but the effect was not significant | 6.75 | 5.60 | 4.60 | – | – | – | – | – | – | – |
| CCCCCc1cc(O)c2c(c1)OC(C)(C)[C@@H]1CCC(C)=C[C@@H]21 [THC, tetrahydrocannabinol] | – | – | – | – | – | – | – | – | 4.29 ngHRP/mg protein | not significantly increased | 6.5 | 4.67 | bell-shaped pattern | 30.3±7.5 | did not affect |
